Measured values published in patent US20220257698A1, “ANGIOTENSIN TYPE 2 (AT2) RECEPTOR AGONISTS FOR USE IN THE TREATMENT OF CANCER” (LANTHIOPEP B.V., priority 2019, published 2022).

How the values were obtained:
[1] = tested on: lung carcinoma PDX Lu7433; assay: KcAng(1-7) on growth of lung carcinoma PDX Lu7433 in mice; format: in vivo, NMRI nu/nu mice (human PDX)
Description: In vivo studies were conducted at EPO GmbH Berlin. Large studies (FIG. 1A, 2, 3, 4, 5) comprised 3 groups of 10 mice/group and 5 animals as reserve, as outlined in Table 1. Smaller studies (FIG. 1B, 1C, 1D) comprised 2 groups of mice of 3 mice per group. The animals were allocated to the various treatment groups (e.g. 0.2 μg/kg and 30 μg/kg) with a maximum of 10 animals per group. […] The groups received subcutaneous (s.c.) drug injection (for max. 28 days) as outlined in the Table 1.
NMRI nu/nu mice were used in this study. The animals were female at age of 6 to 8 weeks. The respective PDX tumors were inoculated subcutaneously (s.c.), and the tumors were grown to achieve palpable tumor sizes before start of the respective treatments. The PDX included breast (MaCa4151), colon (Co9689A), head & neck (HN10309), lung (Lu7433) and ovarian (OvCa13329) cancer (Table 2).
Treatment with KcAng(1-7) was started with palpable tumors after the randomization of animals regarding tumor volume. KcAng(1-7) was applied s.c. by daily injections at […] or 30 μg/kg dose for a maximum of 28 days (or earlier as defined by the humane end point for the study).
KcAng(1-7) was prepared as follows: The compounds was suspended in sterile PBS resulting in a clear solution. The remains of this formulation were stored at 4° C.
Tumor growth stimulatory or inhibitory activity of the KcAng(1-7) was evaluated by determination of tumor volumes (TV). During the study, tumor volumes and body weight were measured twice a week, and the ratio of the mean tumor volumes between the compound-treated group and the vehicle-treated group (T/C) was calculated.
Tumor volume=(tumor width)×(tumor width)×(tumor length)+2
T/C=T÷C • T: Mean estimated tumor volume of the compound-treated group • C: Mean estimated tumor volume of the vehicle-treated group

[2] = target: serine/threonine kinases (STK) in colon carcinoma PDX lysates; assay: PamChip serine/threonine kinase (STK) activity profiling of colon carcinoma PDX tumor lysates; design: species or system human PDX grown in mice; Kinase score: scale not given here; settings: for Kinase statistic: value<0 = higher activity in vehicle-treated tumors; for Kinase score: vehicle-treated vs KcAng(1-7)-treated tumors
Description: In particular, to determine the effect of treatment on kinase activities, Tyrosine (PTK) and Serine/Threonine (STK) PamChip®-based kinase activity profiling in lysates from colon carcinoma PDX was performed by PamGene International B.V., The Netherlands.
PamGene® kinase activity profiles were measured for vehicle-treated colon cancer PDX tumors (control, n=10) and KcAng(1-7)-treated colon cancer PDX tumors (treatment, n=10).
Frozen tissues of tumor samples were processed to make lysates followed by determination of tyrosine kinase and serine/threonine kinase activity profiles. Datasets were analyzed by PamGene bioinformatics toolbox, for example by using PamGene's method called Upstream Kinase Analysis.
Kinase Score was used for ranking kinases based on their significance and specificity in terms of the set of peptides used for the corresponding kinase. Kinase statistics indicates the overall change of the peptide set that represents the kinase. Kinase statistics value<0 indicates higher activity in vehicle-treated tumors.

[3] = Gr. B 0.2 μg/kg/d s.c., Day 11 (Meas. 1)
[4] = Gr. B 0.2 μg/kg/d s.c., Day 14 (Meas. 2)
[5] = Gr. B 0.2 μg/kg/d s.c., Day 18 (Meas. 3)
[6] = Gr. B 0.2 μg/kg/d s.c., Day 21 (Meas. 4)
[7] = Gr. B 0.2 μg/kg/d s.c., Day 25 (Meas. 5)
[8] = Gr. B 0.2 μg/kg/d s.c., Day 28 (Meas. 6)
[9] = Gr. C 30 μg/kg/d s.c., Day 11 (Meas. 1)
[10] = Gr. C 30 μg/kg/d s.c., Day 14 (Meas. 2)
[11] = Gr. C 30 μg/kg/d s.c., Day 18 (Meas. 3)
[12] = Gr. C 30 μg/kg/d s.c., Day 21 (Meas. 4)
[13] = Gr. C 30 μg/kg/d s.c., Day 25 (Meas. 5)
[14] = Gr. C 30 μg/kg/d s.c., Day 28 (Meas. 6)

Substance: Lys-Asp-Arg-Val-Abu/Ala-Ile-His-Abu/Ala (KDRVAIHA; not fully specified; cyclic thioether (Abu/Ala bridge); VARIANT (5)..(5) /replace=“Abu”; VARIANT (8)..(8) /replace=“Abu”; SITE (1)..(8) /note=“Variant residues given in the sequence have no preference with respect to those in the annotations for variant positions”) [KcAng(1-7)]
- optT/C ([1]; 0.2 μg/kg): 68.2%
- optT/C ([1]; 30 μg/kg): 71.9%
- effect on tumor growth ([1]; 0.2 and 30 μg/kg, 19 days): moderate but significant decrease in tumor growth
- RTV Mean [1, 3]: 1
- RTV Median [1, 3]: 1
- T/C [1, 3]: 100.1%
- Tumor Vol. Mean [1, 3]: 0.112 cm^3
- Tumor Vol. Median [1, 3]: 0.109 cm^3
- RTV Mean [1, 4]: 1.7
- RTV Median [1, 4]: 1.8
- T/C [1, 4]: 88.4%
- Tumor Vol. Mean [1, 4]: 0.187 cm^3
- Tumor Vol. Median [1, 4]: 0.19 cm^3
- RTV Mean [1, 5]: 3.3
- RTV Median [1, 5]: 3.4
- T/C [1, 5]: 75.1%
- Tumor Vol. Mean [1, 5]: 0.373 cm^3
- Tumor Vol. Median [1, 5]: 0.412 cm^3
- RTV Mean [1, 6]: 4.2
- RTV Median [1, 6]: 4.3
- T/C [1, 6]: 75.3%
- Tumor Vol. Mean [1, 6]: 0.473 cm^3
- Tumor Vol. Median [1, 6]: 0.454 cm^3
- RTV Mean [1, 7]: 5.7
- RTV Median [1, 7]: 5.6
- T/C [1, 7]: 71%
- Tumor Vol. Mean [1, 7]: 0.643 cm^3
- Tumor Vol. Median [1, 7]: 0.625 cm^3
- RTV Mean [1, 8]: 7.6
- RTV Median [1, 8]: 8.1
- T/C [1, 8]: 68.2%
- Tumor Vol. Mean [1, 8]: 0.844 cm^3
- Tumor Vol. Median [1, 8]: 0.808 cm^3
- RTV Mean [1, 9]: 1
- RTV Median [1, 9]: 1
- T/C [1, 9]: 99.7%
- Tumor Vol. Mean [1, 9]: 0.112 cm^3
- Tumor Vol. Median [1, 9]: 0.099 cm^3
- RTV Mean [1, 10]: 1.6
- RTV Median [1, 10]: 1.6
- T/C [1, 10]: 85.1%
- Tumor Vol. Mean [1, 10]: 0.18 cm^3
- Tumor Vol. Median [1, 10]: 0.168 cm^3
- RTV Mean [1, 11]: 3.2
- RTV Median [1, 11]: 3.1
- T/C [1, 11]: 71.9%
- Tumor Vol. Mean [1, 11]: 0.357 cm^3
- Tumor Vol. Median [1, 11]: 0.376 cm^3
- RTV Mean [1, 12]: 4.3
- RTV Median [1, 12]: 4.1
- T/C [1, 12]: 75.1%
- Tumor Vol. Mean [1, 12]: 0.472 cm^3
- Tumor Vol. Median [1, 12]: 0.509 cm^3
- RTV Mean [1, 13]: 6.1
- RTV Median [1, 13]: 5.9
- T/C [1, 13]: 75.3%
- Tumor Vol. Mean [1, 13]: 0.682 cm^3
- Tumor Vol. Median [1, 13]: 0.719 cm^3
- RTV Mean [1, 14]: 8.2
- RTV Median [1, 14]: 8.2
- T/C [1, 14]: 73.7%
- Tumor Vol. Mean [1, 14]: 0.912 cm^3
- Tumor Vol. Median [1, 14]: 0.991 cm^3
- Kinase statistic ([2]; kinase CDC2/CDK1): −0.80
- Kinase score ([2]; kinase CDC2/CDK1): 3.79
- Kinase statistic ([2]; kinase CDK2): −0.88
- Kinase score ([2]; kinase CDK2): 5.40
- Kinase statistic ([2]; kinase CDK4): −0.80
- Kinase score ([2]; kinase CDK4): 3.11
- Kinase statistic ([2]; kinase CDK5): −0.80
- Kinase score ([2]; kinase CDK5): 3.11
- Kinase statistic ([2]; kinase CDK6): −0.80
- Kinase score ([2]; kinase CDK6): 3.10
- Kinase statistic ([2]; kinase CDK9): −0.83
- Kinase score ([2]; kinase CDK9): 4.19
- Kinase statistic ([2]; kinase CDKL2): −0.98
- Kinase score ([2]; kinase CDKL2): 4.62
- Kinase statistic ([2]; kinase CDKL5): −0.82
- Kinase score ([2]; kinase CDKL5): 4.21
- Kinase statistic ([2]; kinase ERK1): −0.82
- Kinase score ([2]; kinase ERK1): 4.44
- Kinase statistic ([2]; kinase ERK2): −0.79
- Kinase score ([2]; kinase ERK2): 3.84
- Kinase statistic ([2]; kinase ERK5): −0.90
- Kinase score ([2]; kinase ERK5): 5.40
- Kinase statistic ([2]; kinase JNK1): −0.77
- Kinase score ([2]; kinase JNK1): 3.92
- Kinase statistic ([2]; kinase JNK2): −0.77
- Kinase score ([2]; kinase JNK2): 3.67
- Kinase statistic ([2]; kinase JNK3): −0.77
- Kinase score ([2]; kinase JNK3): 4.08
- Kinase statistic ([2]; kinase MAPK14): −0.79
- Kinase score ([2]; kinase MAPK14): 3.54
- Kinase statistic ([2]; kinase PCTAIRE2): −0.74
- Kinase score ([2]; kinase PCTAIRE2): 3.44
- Kinase statistic ([2]; kinase RAF1): −0.74
- Kinase score ([2]; kinase RAF1): 2.97
- Kinase statistic ([2]; kinase RSK3): −0.75
- Kinase score ([2]; kinase RSK3): 3.42
- Kinase statistic ([2]; kinase p38[beta]): −0.84
- Kinase score ([2]; kinase p38[beta]): 4.14
- Kinase statistic ([2]; kinase p38[gamma]): −0.82
- Kinase score ([2]; kinase p38[gamma]): 3.47
